Data published in US6365591B1, “Isoxazolecarboxamide derivatives” (Recordati, S.A., Chemical and Pharmacueticals Company, priority 1999, dated 2002).
Read-outs that look alike come from different tables or passages of the source.

What was measured:
diastolic blood pressure [1] = conditions: cited from earlier work; for DBP ED25: dose inducing a 25% decrease in diastolic blood pressure: anaesthetised dogs, i.v., data from Leonardi et al. 1997
[2] = tested on: recombinant α1a-adrenoceptor; conditions: literature statement (Leonardi et al. 1997); cited from earlier work
α1L adrenoceptor = molecular target: T1, α1L adrenoceptor (Oryctolagus cuniculus, UniProt O02824); test: Functional antagonism of noradrenaline-induced contractions of rabbit aorta pretreated with chloroethylclonidine; assay type: biochemical
T1 sequence (O02824 1-466): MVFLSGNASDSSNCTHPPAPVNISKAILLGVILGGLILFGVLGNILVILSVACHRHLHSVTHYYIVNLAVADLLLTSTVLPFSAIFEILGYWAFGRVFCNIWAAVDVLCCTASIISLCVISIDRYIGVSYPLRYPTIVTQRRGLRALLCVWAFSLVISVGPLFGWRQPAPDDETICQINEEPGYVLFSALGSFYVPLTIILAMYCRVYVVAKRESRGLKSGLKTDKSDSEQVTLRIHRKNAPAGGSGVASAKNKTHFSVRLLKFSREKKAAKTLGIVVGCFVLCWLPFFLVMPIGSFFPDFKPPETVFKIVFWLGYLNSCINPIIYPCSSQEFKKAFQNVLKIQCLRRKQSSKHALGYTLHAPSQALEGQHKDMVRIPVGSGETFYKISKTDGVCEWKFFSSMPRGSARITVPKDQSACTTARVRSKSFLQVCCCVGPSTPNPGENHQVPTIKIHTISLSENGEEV
Experimental: Adult male New Zealand rabbits were sacrificed by cervical dislocation. The aorta was removed, placed in Krebs-Henseleit buffer and dissected free of adhering tissue. […] Desmethylimipramine (0.1 μM) and corticosterone (1 μM) to block neuronal and extraneuronal uptake of NA, (±)-propranol (1 μM) to block β adrenoceptors and yohimbine (0.1 μM) to block α2 adrenoceptors were added to the buffer.
Each antagonist concentration was tested using 2-3 aortic rings from different rabbits.
The logarithm of these dose ratio −1 was plotted against the logarithm of the compound concentrations (Schild plot) to evaluate the affinity constant Kb.

[3] = tested on: prostatic urethral pressure (noradrenaline-induced); conditions: cited from earlier work
[4] = tested on: prostatic urethral pressure (hypogastric-nerve stimulation); conditions: anaesthetised dogs, i.v.; data from Leonardi et al. 1997; cited from earlier work
[5] = molecular target: T2, human 5-HT1A-serotoninergic receptor (Homo sapiens, UniProt P08908); test: Radioligand binding ([3H]8-OH-DPAT) to cloned 5-HT1A receptor in HeLa cell membranes; conditions: mean Ki, read-out: Affinity for 5-HT1A receptor, Ki
T2 construct: expressed in transfected cells; host or cells: HeLa
T2 sequence (P08908 1-422): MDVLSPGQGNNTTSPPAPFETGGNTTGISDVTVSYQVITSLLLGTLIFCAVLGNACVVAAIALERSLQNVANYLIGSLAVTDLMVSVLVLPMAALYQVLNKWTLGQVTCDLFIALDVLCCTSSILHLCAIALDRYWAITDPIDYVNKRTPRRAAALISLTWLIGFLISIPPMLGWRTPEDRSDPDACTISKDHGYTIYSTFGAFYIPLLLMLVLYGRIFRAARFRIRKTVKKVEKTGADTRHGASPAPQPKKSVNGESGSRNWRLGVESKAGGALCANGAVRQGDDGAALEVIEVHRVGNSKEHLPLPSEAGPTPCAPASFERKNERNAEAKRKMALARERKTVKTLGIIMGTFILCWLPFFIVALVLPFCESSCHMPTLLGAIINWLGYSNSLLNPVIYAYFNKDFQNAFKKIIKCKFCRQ
From the text: Data were expressed as mean Ki.

[6] = molecular target: T3, recombinant α1b-adrenoceptor (Homo sapiens, UniProt P35368); test: biochemical
T3 sequence (P35368 1-520): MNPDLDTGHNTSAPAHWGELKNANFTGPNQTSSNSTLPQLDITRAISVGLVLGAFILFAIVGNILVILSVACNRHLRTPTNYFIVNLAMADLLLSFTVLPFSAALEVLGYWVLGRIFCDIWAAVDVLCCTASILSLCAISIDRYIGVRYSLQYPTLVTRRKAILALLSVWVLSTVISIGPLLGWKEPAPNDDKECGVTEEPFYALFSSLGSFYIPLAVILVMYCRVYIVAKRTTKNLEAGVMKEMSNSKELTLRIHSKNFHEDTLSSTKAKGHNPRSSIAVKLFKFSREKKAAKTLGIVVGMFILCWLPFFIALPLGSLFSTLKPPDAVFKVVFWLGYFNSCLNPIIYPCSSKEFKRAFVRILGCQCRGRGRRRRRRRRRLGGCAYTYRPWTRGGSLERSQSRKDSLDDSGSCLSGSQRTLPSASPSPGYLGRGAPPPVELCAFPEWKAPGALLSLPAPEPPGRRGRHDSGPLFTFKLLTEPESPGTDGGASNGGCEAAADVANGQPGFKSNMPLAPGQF
Experimental: (§4) Determination of Affinity for Cloned α1 Adrenergic Receptors and 5-HT1A Serotoninergic Receptors by Radioligand Binding Assay
(§5) Determination of affinity for cloned subtypes of the α1-adrenoceptor was performed in membranes from cells transfected by electroporation with DNA expressing the genes encoding each α1-adrenoceptor subtype.
(§6) Non-specific binding was determined in the presence of 10 μM phentolamine. Incubation was stopped by addition of ice-cold Tris buffer and rapid filtration through 0.2%-polyethyleneimine pretreated Schleicher & Schuell GF52 filters.

[7] = molecular target: T4, recombinant α1a-adrenoceptor (UniProt P35348); conditions: read-out: Affinity for recombinant α1a-adrenoceptor subtype, Ki; [3H]prazosin, membranes of transfected cells; mean Ki
T4 sequence (P35348 1-466): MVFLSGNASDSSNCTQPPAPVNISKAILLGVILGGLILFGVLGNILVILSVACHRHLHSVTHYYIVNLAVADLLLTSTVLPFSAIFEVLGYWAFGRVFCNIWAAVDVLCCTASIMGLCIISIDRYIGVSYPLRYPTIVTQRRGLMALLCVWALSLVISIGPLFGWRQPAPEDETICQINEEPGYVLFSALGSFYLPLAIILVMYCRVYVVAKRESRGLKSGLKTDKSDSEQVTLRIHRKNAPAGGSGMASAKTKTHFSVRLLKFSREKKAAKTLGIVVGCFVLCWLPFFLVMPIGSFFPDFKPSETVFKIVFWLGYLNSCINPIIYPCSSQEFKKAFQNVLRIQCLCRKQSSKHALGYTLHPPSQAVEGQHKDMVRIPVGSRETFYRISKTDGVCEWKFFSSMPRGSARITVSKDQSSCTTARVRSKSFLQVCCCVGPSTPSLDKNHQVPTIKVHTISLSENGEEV
Experimental: as §4, §5, §6

diastolic blood pressure [8] = test: Diastolic blood pressure in anaesthetised dogs, i.v. administration; assay type: in vivo, dog
Experimental: (§1) Effects on Urethral Contractions (Induced by Noradrenaline Injection and Hypogastric-nerve Stimulation) and on Blood Pressure in Dogs After Intravenous Administration
(§2) The experiments were performed according to the method of Imagawa et al. (J. Pharmacol. Methods, 22:103-111, 1989) with substantial modifications, as follows: adult male beagle dogs, weighing 8-10 kg, were anaesthetised with pentobarbital sodium (30 mg/kg i.v. and 2 mg/kg/h i.v.), intubated and spontaneously ventilated with room air. In order to monitor systemic blood pressure (BP), a polyethylene (PE) catheter was introduced into the aortic arch through the left femoral artery. A collateral of the left femoral vein was cannulated for infusion of anaesthetic, and the right femoral vein was cannulated for administration of the compounds. […] Prostatic urethral pressure was monitored with a Mikro-tip catheter (5F) introduced into the bladder via the external urethral meatus, and withdrawn until the pressure transducer was positioned in the prostatic region of the urethra. […]
(§3) After a stabilizing period following the surgical procedure (30 minutes), in which arterial and prostatic urethral pressure were continuously monitored as basal values, i.a. administration of NA and stimulation of the hypogastric nerve were alternately made at intervals of 10 minutes. […]

[9] = tested on: prostatic urethral pressure (noradrenaline-induced); test: Urethral contractions induced by intraarterial noradrenaline in anaesthetised dogs, i.v. administration; assay type: in vivo, dog
Experimental: as §1, §2, §3

[10] = tested on: prostatic urethral pressure (hypogastric-nerve stimulation); test: Urethral contractions induced by hypogastric-nerve stimulation in anaesthetised dogs, i.v. administration; assay type: in vivo, dog
Experimental: as §1, §2, §3

[11] = molecular target: T5, recombinant α1d-adrenoceptor (UniProt P25100); conditions: [3H]prazosin, membranes of transfected cells; mean Ki
T5 sequence (P25100 1-572): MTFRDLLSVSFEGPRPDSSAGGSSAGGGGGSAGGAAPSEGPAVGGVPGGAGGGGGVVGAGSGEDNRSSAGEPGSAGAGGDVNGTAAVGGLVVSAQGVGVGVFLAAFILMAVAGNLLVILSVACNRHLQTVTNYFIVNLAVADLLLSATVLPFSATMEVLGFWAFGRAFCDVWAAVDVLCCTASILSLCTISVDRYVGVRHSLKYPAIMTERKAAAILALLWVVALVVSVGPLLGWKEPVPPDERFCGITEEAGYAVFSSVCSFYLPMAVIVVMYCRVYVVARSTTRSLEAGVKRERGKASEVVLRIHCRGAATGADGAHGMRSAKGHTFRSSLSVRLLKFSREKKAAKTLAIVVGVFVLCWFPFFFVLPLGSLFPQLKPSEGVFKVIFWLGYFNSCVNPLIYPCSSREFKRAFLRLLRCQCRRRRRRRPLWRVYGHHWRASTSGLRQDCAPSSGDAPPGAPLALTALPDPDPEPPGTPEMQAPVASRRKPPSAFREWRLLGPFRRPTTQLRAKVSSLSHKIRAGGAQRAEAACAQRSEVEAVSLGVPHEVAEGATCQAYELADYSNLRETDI
Experimental: as §4, §5, §6

[12] = dog model, literature (Leonardi et al. 1997)

## COc1ccccc1N1CCN(CCCNC(=O)c2cccc3c(=O)c(C)c(-c4ccccc4)oc23)CC1 [Compound A]
Diastolic blood pressure [1]; first of two DBP values (the one that gives R1, NA)
  DBP ED25: dose inducing a 25% decrease in diastolic blood pressure: 0.243 mg/kg
Diastolic blood pressure [1]; second of two DBP values (the one that gives R2, HYP)
  DBP ED25: dose inducing a 25% decrease in diastolic blood pressure: 0.177 mg/kg
Diastolic blood pressure [1]; [12]
  effects on blood pressure: without substantial effects on blood pressure
[2]
  affinity for the α1A adrenoceptor: good affinity
α1L adrenoceptor
  Functional affinity for the α1L adrenoceptor subtype, pKb: 8.91
[3]; anaesthetised dogs, i.v., data from Leonardi et al. 1997
  UP ID50 NA: dose inhibiting by 50% the urethral contractions induced by noradrenaline: 0.0024 mg/kg
[3]; [12]
  inhibition of contractility of the prostatic urethra: selectively inhibit contractility of the prostatic urethra
[4]
  UP ID50 HYP: dose inhibiting by 50% the urethral contractions induced by hypogastric-nerve stimulation: 0.0067 mg/kg

## COc1ccc(Cl)cc1N1CCN(CCCNC(=O)c2c(-c3ccccc3)noc2C)CC1 [Example 1, N-{3-[4-(5-Chloro-2-methoxyphenyl)-1-piperazinyl]propyl}-5-methyl-3-phenylisoxazole-4-carboxamide]
[5]
  Ki: 436 nM
[6]
  Ki: 23.6 nM
[7]
  Ki: 0.77 nM
Diastolic blood pressure [8]
  DBP ED25: dose inducing a 25% decrease in diastolic blood pressure: 0.3545 mg/kg

## Cc1onc(-c2ccccc2)c1C(=O)NCCCN1CCN(c2ccc(F)cc2OCC(F)(F)F)CC1 [Example 6, N-{3-[4-[4-Fluoro-2-(2,2,2-trifluoroethoxy)phenyl]-1-piperazinyl]propyl}-5-methyl-3-phenylisoxazole-4-carboxamide]
[9]
  UP ID50 NA: dose inhibiting by 50% the urethral contractions induced by noradrenaline: 0.0024 mg/kg
[5]
  Ki: 317 nM
[6]
  Ki: 69.5 nM
[7]
  Ki: 0.35 nM
[10]
  UP ID50 HYP: dose inhibiting by 50% the urethral contractions induced by hypogastric-nerve stimulation: 0.0045 mg/kg
Diastolic blood pressure [8]
  DBP ED25: dose inducing a 25% decrease in diastolic blood pressure: 0.1967 mg/kg

## O=C(NCCCN1CCN(c2ccc(F)cc2OCC(F)(F)F)CC1)c1conc1-c1ccc(F)cc1 [Example 8, 3-(4-Fluorophenyl)-N-[3-[4-[4-fluoro-2-(2,2,2-trifluoroethoxy)phenyl]-1-piperazinyl]propyl]-isoxazole-4-carboxamide]
[11]
  Affinity for recombinant α1d-adrenoceptor subtype, Ki: 25/81
[5]
  Ki: 202 nM
[6]
  Ki: 28.1 nM
